Test [1] relates to Radical scavenging activity. The experiment in a line: Antioxidant activity assessed as DPPH radical scavenging activity after 1 hr. The format is functional.
Test [2] concerns Micrococcus luteus. The experiment in a line: Antibacterial activity against Micrococcus luteus. It is filed as functional, organism-based.
In test [3] the test system is Escherichia coli. Briefly: Antibacterial activity against Escherichia coli. It is filed as functional, organism-based.

Calls of active or inactive are those of the source. No cut-off for these calls is given here.

The source of these data is ChEMBL document CHEMBL1154980, “Tetrapeptides possessing a unique skeleton, JBIR-34 and JBIR-35, isolated from a sponge-derived actinomycete, Streptomyces sp. Sp080513GE-23” (J Nat Prod, 2010).

Take `C[C@@H](NC(=O)[C@@]1(C)COC(c2cn(C)c3cc(Cl)cc(O)c23)=N1)C(=O)N[C@@H](CO)C(=O)O`: in test [1], the IC50 – broadly, the midpoint of a concentration-inhibition curve – is 2500 µM. In addition, the outcome in test [2] and in test [3] was inactive.
With `Cc1c(Cl)cc2c(c(C3=N[C@@](C)(C(=O)N[C@H](C)C(=O)N[C@@H](CO)C(=O)O)CO3)cn2C)c1O`, the IC50 in test [1] is 1000 µM. Besides, the result in test [2] and in test [3] was inactive.
In the case of `Cc1c(C)c2c(c(C)c1O)CC[C@@](C)(CCC[C@H](C)CCC[C@H](C)CCCC(C)C)O2` [ALPHA-TOCOPHEROL], the IC50 in test [1] stood at 50 µM.
